The nature of data set [1]: Slurry of lestaurtinib forms in 200 proof ethanol for 48 hours, remaining form analyzed by PXRD. The conditions noted are these: for Form After Mixing With Ethanol For 48 Hours: 200 proof ethanol, PXRD. Here is the method: The forms of lestaurtinib remaining were analyzed by PXRD to determine if any crystal form conversion had occurred.
Data set [2] is described as follows: Thermogravimetric analysis (TGA) moisture / weight loss. Format: physicochemical. The conditions noted are these: for weight loss: TGA. The protocol: TGA data were obtained using a TA Instruments Model 3100 and 5200 Thermal Analysts with a Model 2950 Hi Res TGA module. TGA thermograms were acquired at a heating rate of 5° C. per minute, under nitrogen purge with a flow rate of about 40 mL per minute.

The nature of data set [3]: Solubility in 200 proof ethanol by HPLC (saturated solutions, two-day slurry). The note with it: slurried two days. Here is the method:
Solubility of Lestaurtinib Crystalline Form 1 and anhydrous lestaurtinib at 26° C. and 2-8° C. was determined using HPLC. Saturated solutions of the solid-state phase in ethanol (200 poof) were obtained by slurrying a sample in ethanol for two days at 26° C. and at 2-8° C. After slurrying, each solution was filtered through 0.45 μm micron filter and the level of CEP-701 was determined by HPLC.

The nature of data set [4]: Dynamic moisture sorption gravimetry (DMSG) (hygroscopicity). Format: physicochemical. Here is the method: Because moisture-mediated crystallization was not observed during RH levels between 5% and 10%, it was concluded that the solid at 5% RH was crystalline; and because the solid contained less than 0.5% water, it was also determined that it was an anhydrate.
Dynamic moisture sorption gravimetry (DMSG) (hygroscopicity) data were obtained on a VTI Corporation model MB 300 G sorption microbalance using vacuum to control RH. The automated system controlled the RH and temperature to which each sample was exposed, while continuously recording sample weight changes. Sorption and desorption isotherms were performed at 25±0.1° C. with 5±1% RH step intervals from 0-95% RH. Samples of about 15-30 mg were dried under vacuum for up to 3 hours (approximate RH=0-1% RH) before each experiment. The weight loss observed during the drying period was used to estimate how tightly each sample held onto water. After the drying period, sorption isotherms started at 5% RH. A critical weight equilibrium of less than […] weight change over three 5 minutes periods was used to move to the next step. […] Meaning that any water present in the sample was surface water and not lattice water.

A short description of data set [5]: Solid-state stability of crystalline forms versus relative humidity. Format: physicochemical. The conditions noted are these: for RH above which the form converts to a higher hydrate: ambient temperature.

Values after ≈ are worked out from the molar mass of the structure shown.

One may read the Solubility as the concentration that dissolves in the medium under given conditions. A high value points to much dissolved substance.

`CC#N.CC12OC(CC1(O)CO)n1c3ccccc3c3c4c(c5c6ccccc6n2c5c31)C(=O)NC4.CC12OC(CC1(O)CO)n1c3ccccc3c3c4c(c5c6ccccc6n2c5c31)C(=O)NC4.O` (stereo not shown) [hemi: hydrate/acetonitrileate, Crystalline Lestaurtinib Hemihydrate Hemiacetonitrileate]: the “Form After Mixing With Ethanol For 48 Hours” value in data set [1] (2-8° C.) and in data set [1] (26° C.) was 1 each time.
Turning to `CC12OC(CC1(O)CO)n1c3ccccc3c3c4c(c5c6ccccc6n2c5c31)C(=O)NC4` (stereo not shown) [Form I, Lestaurtinib Crystalline Form 1], in data set [2] (up to about 100° C.), the weight loss worked out at 0.04%. In addition, in data set [2] (determined by TGA), the moisture entry is “less than 0.05%”. For the same molecule, the results for the Solubility in data set [3] (2-8° C.) and in data set [3] (26° C.) were 2380 µg/mL (≈ 5.42 mM) and 2600 µg/mL (≈ 5.92 mM), respectively. Also, the hygroscopicity result in data set [4] is listed as “non-hygroscopic”. The nominal moisture uptake result in data set [4] (DMSG, 25° C.) was “about 0.2 % (w/w)”. For the same molecule, the moisture uptake result in data set [4] (DMSG, 25° C., 0-95% RH) was “up to 0.4%”. Moreover, the “equilibrium moisture content (EMC)” value in data set [4] (DMSG, at moisture uptake up to about 0.4%) is listed as “about 0.1 mole water per mole drug”; in data set [4] (DMSG, at nominal moisture uptake of about 0.2%), “about 0.05 mole water per mole drug”. Moreover, the “Form After Mixing With Ethanol For 48 Hours” value in data set [1] (2-8° C.) and in data set [1] (26° C.) was 1 each time. In data set [1] (ambient temperature and 2-8° C.), the “relative stability of crystalline form” value is “most stable crystalline form of lestaurtinib”. In data set [5] (regardless of temperature or relative humidity), the solid state conversion result was “not known to undergo solid state conversion”.
In the case of `C[C@]12O[C@H](C[C@]1(O)CO)n1c3ccccc3c3c4c(c5c6ccccc6n2c5c31)CNC4=O` [hydrated, Crystalline Hydrated Lestaurtinib], the “Form After Mixing With Ethanol For 48 Hours” value in data set [1] (2-8° C.) and in data set [1] (26° C.) was 1 in each case.
On to `C[C@]12O[C@H](C[C@]1(O)CO)n1c3ccccc3c3c4c(c5c6ccccc6n2c5c31)CNC4=O` [Crystalline lestaurtinib anhydrate, Crystalline Lestaurtinib Anhydrate], for which the “water content of solid-state phase” value in data set [4] (DMSG, 25° C., between 0% and 5% RH) is on record as “less than 0.5%”. Further, the “RH above which the form converts to a higher hydrate” value in data set [5] is reported as “above 5 % RH”.
On to `C[C@]12O[C@H](C[C@]1(O)CO)n1c3ccccc3c3c4c(c5c6ccccc6n2c5c31)CNC4=O.O` [Crystalline lestaurtinib monohydrate, crystalline lestaurtinib monohydrate], for which the “RH above which the form converts to a higher hydrate” value in data set [5] is “above 40 % RH”. In data set [5] (ground with mortar and pestle vs unground), the “factor by which ability to absorb water is reduced when ground” value is reported as “about 6”.
The molecule `C[C@]12O[C@H](C[C@]1(O)CO)n1c3ccccc3c3c4c(c5c6ccccc6n2c5c31)CNC4=O` [Amorphous, Amorphous Lestaurtinib] showed a weight loss in data set [2] (up to about 184° C.) of 5.56%.

These data come from patent US20100048533A1, “LESTAURTINIB CRYSTALLINE FORM 1, CRYSTALLINE LESTAURIMIB ANHYDRATE AND AMORPHOUS LESTAURIMIB” (ABBOTT LABORATORIES, priority 2005, published 2010).
